Source: patent US5024994A, “Renin inhibitors IV” (Warner-Lambert Company, priority 1988, dated 1991)
Read-outs that look alike come from different tables or passages of the source.

Molecular target: T1, renin (Homo sapiens, UniProt P00797)
T1 sequence (P00797 67-406): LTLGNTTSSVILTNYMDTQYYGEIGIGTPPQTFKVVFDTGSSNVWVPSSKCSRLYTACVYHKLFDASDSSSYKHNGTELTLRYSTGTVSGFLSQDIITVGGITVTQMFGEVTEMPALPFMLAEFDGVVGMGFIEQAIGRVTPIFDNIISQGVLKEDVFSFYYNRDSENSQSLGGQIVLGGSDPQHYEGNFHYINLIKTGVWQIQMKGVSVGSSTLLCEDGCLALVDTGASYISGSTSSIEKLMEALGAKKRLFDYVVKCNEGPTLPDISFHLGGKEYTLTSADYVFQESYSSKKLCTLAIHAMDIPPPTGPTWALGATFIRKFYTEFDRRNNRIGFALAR
Test: in vitro renin inhibitory activity, radioimmunoassay for angiotensin I
Type: biochemical
Details: for inhibition at 1 µM: at 10^-6 molar concentration, read-out: percent inhibition of renin activity
Experimental: The effectiveness of the aforementioned compounds is determined by a test for in vitro renin inhibitory activity. This activity is determined by a standard radioimmunoassay for angiotensin I. In this assay the enzyme, renin, incubated for two hours at 37° in the presence of a substrate, angiotensinogen, generates the product, angiotensin I. Test compounds are added to the incubation mixture.

IC50 (read-out: IC50) [nM]	SMILES	also measured
9.6	CC[C@H](C)CNC(=O)C[C@H](O)[C@H](CC(C)C)NC(=O)[C@H](CCCCNC(=S)NC)NC(=O)C(Cc1cccc2ccccc12)Cc1cccc2ccccc12	
29	CCC(C)CNC(=O)C[C@H](O)[C@H](CC(C)C)NC(=O)[C@H](CCCCNC(=O)NC)NC(=O)C(Cc1cccc2ccccc12)Cc1cccc2ccccc12 (stereo partly shown)	
46	CCCCNC(=S)NCCCC[C@H](NC(=O)C(Cc1cccc2ccccc12)Cc1cccc2ccccc12)C(=O)N[C@@H](CC(C)C)[C@@H](O)CC(=O)NC[C@@H](C)CC	
58	CCCCNC(=S)NCCCC[C@H](NC(=O)C(Cc1cccc2ccccc12)Cc1cccc2ccccc12)C(=O)N[C@@H](CC(C)C)[C@@H](O)CC(=O)NCC(C)CC (stereo partly shown)	
450	CC[C@H](C)CNC(=O)C[C@H](O)[C@H](CC(C)C)NC(=O)[C@H](CCCCNC(=S)NCC(C)(C)C)NC(=O)C(Cc1cccc2ccccc12)Cc1cccc2ccccc12	
7.5	CCC(C)CNC(=O)C[C@H](O)[C@H](CC(C)C)NC(=O)[C@H](CCCCNC(=S)NC(C)(C)CC)NC(=O)C(Cc1cccc2ccccc12)Cc1cccc2ccccc12 (stereo partly shown)	
15	CCC(C)CNC(=O)C[C@H](O)[C@H](CC(C)C)NC(=O)[C@H](CCCCNC(=NC#N)NC)NC(=O)C(Cc1cccc2ccccc12)Cc1cccc2ccccc12 (stereo partly shown)	
540	CCC(C)CNC(=O)C[C@H](O)[C@H](CC(C)C)NC(=O)[C@H](CCCCn1cccc1)NC(=O)C(Cc1cccc2ccccc12)Cc1cccc2ccccc12 (stereo partly shown)	
84	CNC(=O)NCCCC[C@H](NC(=O)C(Cc1cccc2ccccc12)Cc1cccc2ccccc12)C(=O)N[C@@H](CC(C)C)[C@@H](O)CC(=O)N[C@@H](CC(C)C)C(=O)NCc1ccccc1	
290	CCC(C)CNC(=O)C[C@H](O)[C@H](CC(C)C)NC(=O)C(CCCCCNC(=O)OCc1ccccc1)NC(=O)C(Cc1cccc2ccccc12)Cc1cccc2ccccc12 (stereo partly shown)	
45	CC[C@H](C)CNC(=O)C[C@H](O)[C@H](CC(C)C)NC(=O)C(CCCCCCNC(N)=NC#N)NC(=O)C(Cc1cccc2ccccc12)Cc1cccc2ccccc12 (stereo partly shown)	
59	CC(C)C[C@H](NC(=O)C[C@H](O)[C@H](CC(C)C)NC(=O)C(CCCCCCNC(=O)OCc1ccccc1)NC(=O)C(Cc1cccc2ccccc12)Cc1cccc2ccccc12)C(=O)NCc1ccccc1 (stereo partly shown)	
280	CC[C@H](C)CNC(=O)C[C@H](O)[C@H](CC(C)C)NC(=O)[C@H](CCCNC(=S)NC)NC(=O)C(Cc1cccc2ccccc12)Cc1cccc2ccccc12	
890	CC[C@H](C)CNC(=O)C[C@H](O)[C@H](CC(C)C)NC(=O)[C@H](CCCNC(=O)NC)NC(=O)C(Cc1cccc2ccccc12)Cc1cccc2ccccc12	
50	CC[C@H](C)CNC(=O)C[C@H](O)[C@H](CC(C)C)NC(=O)[C@H](CCCCNC(N)=O)NC(=O)C(Cc1cccc2ccccc12)Cc1cccc2ccccc12	
41	CC[C@H](C)CNC(=O)C[C@H](O)[C@H](CC(C)C)NC(=O)C(NC(=O)[C@H](Cc1ccccc1)NC(=O)OC(C)(C)C)C(=O)OC (stereo partly shown)	
200	CC[C@H](C)CNC(=O)C[C@H](O)[C@H](CC(C)C)NC(=O)C(NC(=O)C(Cc1cccc2ccccc12)Cc1cccc2ccccc12)C(=O)N(C)C (stereo partly shown)	
2800	CC[C@H](C)CNC(=O)C[C@H](O)[C@H](CC(C)C)NC(=O)C(Cc1nc2ccccc2[nH]1)NC(=O)C(Cc1cccc2ccccc12)Cc1cccc2ccccc12 (stereo partly shown)	
570	CC[C@H](C)CNC(=O)C[C@H](O)[C@H](CC(C)C)NC(=O)C(CC#N)NC(=O)[C@H](Cc1ccccc1)NC(=O)CC(C)C (stereo partly shown)	
23	CCOC(=O)C(NC(=O)C(Cc1cccc2ccccc12)Cc1cccc2ccccc12)C(=O)N[C@@H](CC(C)C)[C@@H](O)CC(=O)NC[C@@H](C)CC (stereo partly shown)	
1200	CC[C@H](C)CNC(=O)C[C@H](O)[C@H](CC(C)C)NC(=O)C(CCCCCC(=O)NC)NC(=O)C(Cc1cccc2ccccc12)Cc1cccc2ccccc12 (stereo partly shown)	
700	CC(C)(C)OC(=O)NCC#CCC(NC(=O)C(Cc1cccc2ccccc12)Cc1cccc2ccccc12)C(=O)N[C@@H](CC1CCCCC1)[C@@H](O)CC(=O)NCCN1CCOCC1 (stereo partly shown)	
8.6	CC(=O)NCC#CCC(NC(=O)C(Cc1cccc2ccccc12)Cc1cccc2ccccc12)C(=O)N[C@@H](CC1CCCCC1)[C@@H](O)CC(=O)NCCN1CCOCC1 (stereo partly shown)	
12	N=C(NCC#CCC(NC(=O)C(Cc1cccc2ccccc12)Cc1cccc2ccccc12)C(=O)N[C@@H](CC1CCCCC1)[C@@H](O)CC(=O)NCCN1CCOCC1)N[N+](=O)[O-] (stereo partly shown)	
48	CNC(=S)NCC#CCC(NC(=O)C(Cc1cccc2ccccc12)Cc1cccc2ccccc12)C(=O)N[C@@H](CC1CCCCC1)[C@@H](O)CC(=O)NCCN1CCOCC1 (stereo partly shown)	
98	CC[C@H](C)CNC(=O)C[C@H](O)[C@H](CC(C)C)NC(=O)[C@H](CCCCNC(=O)CSC)NC(=O)C(Cc1cccc2ccccc12)Cc1cccc2ccccc12	
68	CC[C@H](C)CNC(=O)C[C@H](O)[C@H](CC(C)C)NC(=O)[C@H](CCCCNC(=O)CS(C)(=O)=O)NC(=O)C(Cc1cccc2ccccc12)Cc1cccc2ccccc12	

Second part, the compound before the results:

SMILES	IC50 (read-out: IC50) [nM]	also measured
CCC(C)CNC(=O)C[C@H](O)[C@H](CC1CCCCC1)NC(=O)[C@H](CCCCNC(=N)N[N+](=O)[O-])NC(=O)C(Cc1cccc2ccccc12)Cc1cccc2ccccc12 (stereo partly shown)	15	
CCC(C)CNC(=O)C[C@H](O)[C@H](CC(C)C)NC(=O)[C@H](CCCCNP(=O)(Oc1ccccc1)Oc1ccccc1)NC(=O)C(Cc1cccc2ccccc12)Cc1cccc2ccccc12 (stereo partly shown)		IC50: 7400 nM
CCC(C)CNC(=O)C[C@H](O)[C@H](CC(C)C)NC(=O)[C@H](CCCCNC(=NC#N)SC)NC(=O)C(Cc1cccc2ccccc12)Cc1cccc2ccccc12 (stereo partly shown)		IC50: 19 nM
CCC(C)CNC(=O)C[C@H](O)[C@H](CC(C)C)NC(=O)[C@H](CCCCNC(N)=NC#N)NC(=O)C(Cc1cccc2ccccc12)Cc1cccc2ccccc12 (stereo partly shown)	18	
CC[C@H](C)CNC(=O)C[C@H](O)[C@H](CC(C)C)NC(=O)[C@H](CCCCn1cccc1)NC(=O)C(Cc1cccc2ccccc12)Cc1cccc2ccccc12		IC50: 87 nM
CC(C)C[C@H](NC(=O)C[C@H](O)[C@H](CC(C)C)NC(=O)[C@H](CCCCNC(=N)N[N+](=O)[O-])NC(=O)C(Cc1cccc2ccccc12)Cc1cccc2ccccc12)C(=O)NCc1ccccc1		IC50: 15 nM
CNC(=S)NCCCC[C@H](NC(=O)C(Cc1cccc2ccccc12)Cc1cccc2ccccc12)C(=O)N[C@@H](CC(C)C)[C@@H](O)CC(=O)N[C@@H](CC(C)C)C(=O)NCc1ccccc1		IC50: 60 nM
CCC(C)CNC(=O)C[C@H](O)[C@H](CC(C)C)NC(=O)C(CCCCCNC(=S)NC)NC(=O)C(Cc1cccc2ccccc12)Cc1cccc2ccccc12 (stereo partly shown)	40	
CCC(C)CNC(=O)C[C@H](O)[C@H](CC(C)C)NC(=O)C(CCCCCNC(=N)N[N+](=O)[O-])NC(=O)C(Cc1cccc2ccccc12)Cc1cccc2ccccc12 (stereo partly shown)		IC50: 26 nM
CC(C)C[C@H](NC(=O)C[C@H](O)[C@H](CC(C)C)NC(=O)C(CCCCCNC(=N)N[N+](=O)[O-])NC(=O)C(Cc1cccc2ccccc12)Cc1cccc2ccccc12)C(=O)NCc1ccccc1 (stereo partly shown)		IC50: 110 nM
CC[C@H](C)CNC(=O)C[C@H](O)[C@H](CC(C)C)NC(=O)C(CCCCCCNC(=O)OCc1ccccc1)NC(=O)C(Cc1cccc2ccccc12)Cc1cccc2ccccc12 (stereo partly shown)		inhibition at 1 µM: 28%
CC[C@H](C)CNC(=O)C[C@H](O)[C@H](CC(C)C)NC(=O)C(CCCCCCNC(=S)NC)NC(=O)C(Cc1cccc2ccccc12)Cc1cccc2ccccc12 (stereo partly shown)		IC50: 45 nM
CC[C@H](C)CNC(=O)C[C@H](O)[C@H](CC(C)C)NC(=O)C(CC#CCNC(=O)OCc1ccccc1)NC(=O)C(Cc1cccc2ccccc12)Cc1cccc2ccccc12 (stereo partly shown)		IC50: 150 nM
CC[C@H](C)CNC(=O)C[C@H](O)[C@H](CC(C)C)NC(=O)C(NC(=O)C(Cc1cccc2ccccc12)Cc1cccc2ccccc12)C(=O)OC (stereo partly shown)		IC50: 23 nM
CC[C@H](C)CNC(=O)C[C@H](O)[C@H](CC(C)C)NC(=O)C(NC(=O)C(Cc1cccc2ccccc12)Cc1cccc2ccccc12)C(=O)NCCc1cnc[nH]1 (stereo partly shown)	3100	
CC[C@H](C)CNC(=O)C[C@H](O)[C@H](CC(C)C)NC(=O)C(NC(=O)C(Cc1cccc2ccccc12)Cc1cccc2ccccc12)C(N)=O (stereo partly shown)		inhibition at 1 µM: 24%
CC[C@H](C)CNC(=O)C[C@H](O)[C@H](CC(C)C)NC(=O)C(NC(=O)C(Cc1cccc2ccccc12)Cc1cccc2ccccc12)C(=O)NC (stereo partly shown)		inhibition at 1 µM: 26%
CCC(C)CNC(=O)C[C@H](O)[C@H](CC(C)C)NC(=O)C(NC(=O)C(CC(=O)N1CCOCC1)Cc1cccc2ccccc12)C(=O)OC (stereo partly shown)		IC50: 98 nM
CCC(C)CNC(=O)C[C@H](O)[C@H](CC(C)C)NC(=O)C(NC(=O)C(Cc1cccc2ccccc12)Cc1cccc2ccccc12)C(=O)OC(C)C (stereo partly shown)	33	
CCC(C)CNC(=O)C[C@H](O)[C@H](CC(C)C)NC(=O)C(C/C=C\CNC(C)=O)NC(=O)C(Cc1cccc2ccccc12)Cc1cccc2ccccc12 (stereo partly shown)	100	
O=CNCC#CCC(NC(=O)C(Cc1cccc2ccccc12)Cc1cccc2ccccc12)C(=O)N[C@@H](CC1CCCCC1)[C@@H](O)CC(=O)NCCN1CCOCC1 (stereo partly shown)	8	
CNC(=S)NCCCC[C@H](NC(=O)C(Cc1ccccc1)CS(=O)(=O)C(C)(C)C)C(=O)N[C@@H](CC1CCCCC1)[C@@H](O)CC(=O)NCCN1CCOCC1 (stereo partly shown)		IC50: 27 nM
CCC(C)CNC(=O)C[C@H](O)[C@H](CC(C)C)NC(=O)C(C/C=C/CNC(=S)NC)NC(=O)C(Cc1cccc2ccccc12)Cc1cccc2ccccc12 (stereo partly shown)		IC50: 41 nM
CC[C@H](C)CNC(=O)C[C@H](O)[C@H](CC(C)C)NC(=O)C(NC(=O)[C@H](Cc1ccccc1)NC(=O)OC(C)(C)C)C(=O)N1CCCC1 (stereo partly shown)		IC50: 400 nM
CCC(C)CNC(=O)C[C@H](O)[C@H](CC(C)C)NC(=O)[C@H](CC#N)NC(=O)[C@H](Cc1ccccc1)NC(=O)OC(C)(C)C (stereo partly shown)		IC50: 260 nM
